According to patent US8258160B2, “SCD1 inhibitors triazole and tetrazole compounds” (Novartis AG, priority 2006, dated 2012):

Legend:
[1] = target: T1, stearoyl-CoA desaturase (SCD1) (Mus musculus, UniProt P13516); test: SCD microsomal assay: release of 3H2O from [9,10-3H]stearoyl-CoA in mouse liver microsomes; type: biochemical; conditions: 15 min incubation, 25° C.
T1 construct: Reactions are started by adding 50 μL of microsomes (1.25 mg/mL); from tissue; host or cells: liver microsomes of male ICR outbred mice on a high-carbohydrate, low-fat diet
T1 sequence (P13516 1-355): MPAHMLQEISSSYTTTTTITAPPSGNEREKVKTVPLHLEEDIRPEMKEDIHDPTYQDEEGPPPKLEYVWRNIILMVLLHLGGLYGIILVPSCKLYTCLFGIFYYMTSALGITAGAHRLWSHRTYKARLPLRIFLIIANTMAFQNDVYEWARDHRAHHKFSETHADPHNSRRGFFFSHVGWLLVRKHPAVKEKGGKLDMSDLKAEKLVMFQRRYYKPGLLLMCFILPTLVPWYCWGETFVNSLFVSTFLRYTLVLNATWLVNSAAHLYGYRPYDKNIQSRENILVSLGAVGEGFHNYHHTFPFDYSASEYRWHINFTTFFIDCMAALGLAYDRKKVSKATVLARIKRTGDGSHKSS
Text: The identification of compounds of the invention as SCD inhibitors was readily accomplished using the SCD enzyme and microsomal assay procedure described in Shanklin J. and Summerville C., Proc. Natl. Acad. Sci. USA (1991), Vol. 88, pp. 2510-2514.
The identification of compounds of the invention as SCD inhibitors was readily accomplished using the SCD microsomal assay procedure described in Shanklin J. and Summerville C., Proc. Natl. Acad. Sci. USA (1991), Vol. 88, pp. 2510-2514.
Male ICR outbread mice, on a high-carbohydrate, low fat diet, under light halothane (15% in mineral oil) anesthesia are sacrificed by exsanguination during periods of high enzyme activity. Livers are immediately rinsed with cold 0.9% NaCl solution, weighed and minced with scissors. All procedures are performed at 4° C. unless specified otherwise. Livers are homogenized in a solution (1/3 w/v) containing 0.25 M sucrose, 62 mM potassium phosphate buffer (pH 7.0), 0.15 M KCl, 15 mM N-acetylcysteine, 5 mM MgCl2, and 0.1 mM EDTA using 4 strokes of a Potter-Elvehjem tissue homogenizer. The homogenate is centrifuged at 10,400×g for 20 min to eliminate mitochondria and cellular debris. The supernatant is filtered through a 3-layer cheesecloth and centrifuged at 105,000×g for 60 min. The microsomal pellet is gently resuspended in the same homogenization solution with a small glass/teflon homogenizer and stored at −70° C. The absence of mitochondrial contamination is enzymatically assessed. The protein concentration is measured using bovine serum albumin as the standard.
Desaturase activity is measured as the release of ^3H2O from [9,10-^3H]stearoyl-CoA. Reactions per assay point conditions are as follows: 2 μL 1.5 mM stearoyl-CoA, 0.25 μL 1 mCi/mL ^3H stearoyl CoA, 10 μL 20 mM NADH, 36.75 μL 0.1 M PK buffer (K2HPO4/NaH2PO4, pH 7.2). The test compound or control solution is added in a 1 μL volume. Reactions are started by adding 50 μL of microsomes (1.25 mg/mL). The plates are mixed and after 15 min incubation on a heating block (25° C.), the reactions are stopped by the addition of 10 μL 60% PCA. An aliquot of 100 μL is then transferred to a filter plate pretreated with charcoal and the plate centrifuged at 4000 rpm for 1 min. The flow through containing the ^3H2O released by the SCD1 desaturation reaction is added to scintillation fluid and the radioactivity measured in a Packard TopCount. The data is analysed to identify the IC50 for test compounds and reference compounds. […] The activity was defined in terms of % SCD enzyme activity remaining at the desired concentration of the test compound or as the IC50 concentration. The IC50 (affinity) of the example compounds toward the stearoyl-CoA desaturase is comprised between around 20 μM and 0.0001 μM or between around 5 μM and 0.0001 μM or between around 1 μM and 0.0001 μM.

| Structure (SMILES) | IC50 [1] [nM] | melting point |
| --- | --- | --- |
| Cc1nc(-c2cn(CCc3ccc(F)cc3)nn2)sc1C(=O)NCc1cccnc1 [Example 4.3, 2-(1-(4-fluorophenethyl)-1H-1,2,3-triazol-4-yl)-4-methyl-N-(pyridin-3-ylmethyl)thiazole-5-carboxamide] | 120 | 149 to 150 °C |
| Cc1nc(-n2cc(Cc3ccccc3)nn2)sc1C(=O)NCc1ccccc1 [Example 10.1, N-benzyl-2-(4-benzyl-1H-1,2,3-triazol-1-yl)-4-methylthiazole-5-carboxamide] | 60 | 139 to 141 °C |
| Cc1nc(-n2cc(CCC3CCCCC3)nn2)sc1C(=O)NCc1ccccc1 [Example 10.14, N-benzyl-2-(4-(2-cyclohexylethyl)-1H-1,2,3-triazol-1-yl)-4-methylthiazole-5-carboxamide] | 240 | 82 to 84 °C |
| Cc1nc(-n2cc(C(=O)NCc3ccc(F)cc3)nn2)sc1C(=O)NCc1ccccc1 [Example 18.1, N-benzyl-2-(4-(4-fluorobenzylcarbamoyl)-1H-1,2,3-triazol-1-yl)-4-methylthiazole-5-carboxamide] | 10 | 198 to 201 °C |
| Cc1cc(-c2n[nH]c(Cc3ccccc3)n2)sc1C(=O)NCc1cccnc1 [Example 26, 5-(5-benzyl-1H-1,2,4-triazol-3-yl)-3-methyl-N-(pyridin-3-ylmethyl)thiophene-2-carboxamide] | 300 | 82 °C (dec.) |
| Cc1nc(-c2cc(Cc3ccccc3)no2)sc1C(=O)NCc1ccccc1 [Example 27, N-benzyl-2-(3-benzylisoxazol-5-yl)-4-methylthiazole-5-carboxamide] | 600 | 103 to 104 °C |
